Results on one molecule are retold here after patent US8053585B2, “Protecting group for carboxylic acids that can be photolyzed by visible light” (Cornell Research Foundation, Inc., priority 2006, dated 2011).

Test [1] deals with GluR6 glutamate receptor. The test can be described thus: Laser-pulse photolysis of DECM-caged glutamate on HEK 293 cells. Type of test: cell-based. The conditions noted are these: 2 mM caged compound, −60 mV, pH 7.4, 22° C. The procedure:
The cells were used for electrophysiological experiments between 24 and 72 h after each passage. Whole-cell currents evoked by glutamate or glycine (100 μM) were recorded using the whole-cell configuration (Hamill et al., “Improved Patch-Clamp Techniques for High-Resolution Current Recording From Cells and Cell-Free Membrane Patches,” Pfluegers Arch 391:85-100 (1981), which is hereby incorporated by reference in its entirety) at room temperature, −60 mV, and pH 7.4. The experiments using DECM-caged glutamate were carried out in the absence or presence of 2 mM DECM-caged glutamate (FIG. 5A) or 1 mM 7-N,N-diethylamino-4-hydroxymethylcoumarin (2) (FIG. 5B). Alternatively, the experiments using DECM-caged glycine were carried out in the absence or presence of 1 mM DECM-caged-glycine (FIG. 10). The solution in the recording pipet contained 120 mM CsCl, 10 mM EGTA, and 10 mM HEPES, adjusted to pH 7.4. The HEK cell bath solution contained 150 mM NaCl, 1 mM CaCl2, 10 mM HEPES, pH 7.4. The resistance of the recording electrode filled with buffer solution was typically 3-5 MΩ and the series resistance was 5-6 MΩ. […]
The laser light produced by the Exalite (Exiton Inc., Dayton, Ohio) 404 dye (≧400 nm) was coupled into an optical fiber (300 μm internal diameter), which delivered the light to the cell. […] Data were analyzed with Microcal Origin3.5 software (Microcal, Northampton, Mass.).

The subject of test [2] is GluR6 glutamate receptor. As to the kind of experiment: Whole-cell current recording with cell-flow method, HEK 293 cells expressing GluR6. The format is cell-based. From the text: In whole-cell current recording experiments with DECM-caged glutamate, HEK 293 cells stably transfected with cDNA encoding the GluR6 were used. In whole-cell current recording experiments with DECM-caged glycine, HEK 293 cells were transiently transfected with the cDNA of the α1-subunit of the human glycine receptor by using the Polyfect™ transfection reagent (Qiagen GmbH, D-40724, Hilden, Germany). The cDNA of the α1-subunit was kindly provided by Professor H. Betz (Max-Plank-Institute for brain Research, Frankfurt, Germany). The cells were co-transfected with cDNA encoding the green fluorescent protein (pGreen Lantern plasmid, Life Technologies, Gaitherberg, Md.) to detect transfected cells (Chalfie et al., “Green Fluorescent Protein as a Marker for Gene Expression,” Science 263:802-805 (1994), which is hereby incorporated by reference in its entirety).
The cells were used for electrophysiological experiments between 24 and 72 h after each passage. Whole-cell currents evoked by glutamate or glycine (100 μM) were recorded using the whole-cell configuration (Hamill et al., “Improved Patch-Clamp Techniques for High-Resolution Current Recording From Cells and Cell-Free Membrane Patches,” Pfluegers Arch 391:85-100 (1981), which is hereby incorporated by reference in its entirety) at room temperature, −60 mV, and pH 7.4. The experiments using DECM-caged glutamate were carried out in the absence or presence of 2 mM DECM-caged glutamate (FIG. 5A) or 1 mM 7-N,N-diethylamino-4-hydroxymethylcoumarin (2) (FIG. 5B). Alternatively, the experiments using DECM-caged glycine were carried out in the absence or presence of 1 mM DECM-caged-glycine (FIG. 10). The solution in the recording pipet contained 120 mM CsCl, 10 mM EGTA, and 10 mM HEPES, adjusted to pH 7.4. The HEK cell bath solution contained 150 mM NaCl, 1 mM CaCl2, 10 mM HEPES, pH 7.4. The resistance of the recording electrode filled with buffer solution was typically 3-5 MΩ and the series resistance was 5-6 MΩ. The cells were held at a constant transmembrane voltage of −60 mV and room temperature (22° C.). […]

For the molecule `CCN(CC)c1ccc2c(COC(=O)CCC(N)C(=O)O)cc(=O)oc2c1` (stereo not shown) [DECM-caged glutamate, (7-N,N-Diethylaminocoumarin-4-yl)-methyl-glutamate-trifluoroacetate], in the test with GluR6 glutamate receptor [1], the “I∞, current at t=∞” value is on record as −1590 pA and the “kobs, apparent pseudo-first-order rate constant of the current rise” value was found to be 765 ± 14 s⁻¹. The “whole-cell current evoked by 100 μM glutamate, presence vs absence of compound” value in the test with GluR6 glutamate receptor [2] (2 mM DECM-caged glutamate, −60 mV, pH 7.4, 22° C.) is listed as “do not inhibit”. Also, the “biological activity at glutamate receptors (inhibition or activation)” value with GluR6 glutamate receptor [2] (HEK-293 cells expressing glutamate receptors) was “biologically inert”.
